How the values were obtained:
[1] = test system: compound action potential (CAP) of the auditory nerve; test: acute perifusion of the cochleae: effect of increasing doses on cochlear potentials (CAP); assay type: in vivo, guinea pigs
Source text: The effect of riluzole in increasing doses was studied according to the technique of acute perifusion of the cochleae:
10 tricolor guinea pigs weighing 200 to 400 g are anesthetized by intraperitoneal injection of urethane (1.4 g/kg) and then trachetomized and artificially ventilated. The external auditory canals are incised for the putting in place of ear bars in a restraining apparatus. During the entire duration of the experiment, the electrocardiogram is monitored and the central temperature regulated by means of a heating cover at 38.5±1° C. The experiments are carried out in a soundproofed, anechoic and faradized chamber. Access to the cochlea is obtained via a ventral approach. After opening of the tympanic bulla, 3 holes 0.2 mm in diameter are manually cut in the basal turn of the cochlea: the first in the tympanic ramp to receive an infusion pipette, the second in the vestibular ramp to allow the outflow of the infused solutions out of the cochlea and the third also in the vestibular ramp to receive a recording electrode.
The cochlear potentials recorded in the vestibular ramp are stored and then numerically filtered to dissociate the compound action potential (CAP), a control for the activity of the auditory nerve and the receptor potentials obtained from the ciliated cells, namely the microphonic potential (MP) and the summation potential (SP). A low-pass filter of 2.5 kHz is used to extract the CAP whose amplitude is measured between N1 (1st negative wave) and P1 (1st positive wave) as well as the SP measured between 0 and 5 ms. A band-pass filter around 8 kHz (acoustic stimulation frequency) is used to extract the MP (6-10 kHz, filter slope: 48 db/octave).
After introducing the pipette (about 0.1 mm in diameter at the tip) into the tympanic ramp with the aid of a micromanipulator, leaktightness being provided by means of a glue ball placed near the tip, artificial perilymph is infused at the rate of 2.5 μl/min. A second infusion of artificial perilymph containing 0.1% dimethyl sulfoxide is carried out. […] These cochlear potentials are recorded immediately after each infusion. The duration of the infusions is 10 minutes.
The IC50 is observed for a dose of 300 μM (FIG. 2). In all the animals, a complete disappearance of the CAP is obtained for a dose of 500 μM.

[2] = test system: acoustic trauma; test: protective effect on acoustic trauma (sound overstimulation 6 kHz, 130 dB SPL, 15 minutes); assay type: in vivo, guinea pigs; settings: 500 μM in perilymph
Description: The protective effect on acoustic trauma was tested on 10 animals for which a preliminary infusion of artificial perilymph is carried out for 10 minutes. After evaluation of the audiometric thresholds, a second 35 minute infusion either of artificial perilymph alone (5 animals: control group) or of perilymph containing 500 μM riluzole (5 animals) is carried out. Ten minutes after the start of the second infusion, a sound overstimulation (6 kHz, 130 dB SPL) is applied for 15 minutes. Finally, a third infusion of artificial perilymph allows rinsing of the cochlea. The audiometric thresholds are then recorded. The auditory loss for each frequency induced by sound exposure is defined as the difference between the audiometric thresholds recorded before and after the sound over-exposure.

[3] = cumulative increasing doses 50 to 500 μM, intracochlear infusion

In the case of Nc1nc2ccc(OC(F)(F)F)cc2s1 [riluzole, 2-amino-6-trifluoromethoxy-benzothiazole], the IC50 ([1]; Cavia porcellus, 10 min, intracochlear infusion of cumulative increasing doses 50 to 500 μM in artificial perilymph with 0.1% dimethyl sulfoxide, 10 minutes each, read-out: IC50 for reduction of the amplitude of the compound action potential (CAP)) is reported as 300 µM, the “effect on CAP of the auditory nerve” value [1, 3] is reported as “reduction in the compound action potential (CAP) of the auditory nerve dependant on the dose” and the “effect on latency N1 of the CAP” value [1, 3] is reported as “increase in the latency N1”. For the same molecule, the “dose for complete disappearance of the CAP” value ([1]; intracochlear infusion, in all the animals) was 500 µM, the “auditory losses after sound overstimulation versus control group” value ([2]; 35 minute infusion, frequencies of between 8 and 16 kHz) was “control group exhibits, for frequencies of between 8 and 16 kHz, much higher auditory losses” and the “histological study of the cochleae by electron microscopy: innervation” value ([2]; after sound overstimulation) was “virtually normal innervation”.
